In ChEMBL document CHEMBL1201862, “PubChem BioAssay data set” (2004):
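Compound exposure: 48 hours, 5 concentrations, 96-well plates. GI50 marks 50% less growth.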 Active and inactive are the calls of the source. Rule as the data show it: active = GI50 up to about 1.1 µM and inactive = higher.

Tests used:
Assay in all cases: NCI-60 cell line screen, 48 h
A549 = test system: A549
ACHN = test system: ACHN
COLO 205 = test system: COLO 205
EKVX = test system: EKVX
HCC 2998 = test system: HCC 2998
HCT-116 = test system: HCT-116
HCT-15 = test system: HCT-15
HOP-92 = test system: HOP-92
KM12 = test system: KM12
LOX IMVI = test system: LOX IMVI
MDA-MB-435 = test system: MDA-MB-435
Malme-3M = test system: Malme-3M
NCI-H226 = test system: NCI-H226
NCI-H23 = test system: NCI-H23
NCI-H460 = test system: NCI-H460
NCI-H522 = test system: NCI-H522
OVCAR-8 = test system: OVCAR-8
SN12C = test system: SN12C
SW-620 = test system: SW-620
SK-MEL-28 = test system: SK-MEL-28

Compound | GI50 (A549) | GI50 (ACHN) | GI50 (COLO 205) | GI50 (EKVX) | GI50 (HCC 2998) | GI50 (HCT-116) | GI50 (HCT-15) | GI50 (HOP-92) | GI50 (KM12) | GI50 (LOX IMVI) | GI50 (MDA-MB-435) | GI50 (Malme-3M) | GI50 (NCI-H226) | GI50 (NCI-H23) | GI50 (NCI-H460) | GI50 (NCI-H522) | GI50 (OVCAR-8) | GI50 (SN12C) | GI50 (SW-620) | GI50 (SK-MEL-28)
Nc1ccn(C2CCC(CO)O2)c(=S)n1 (centres undefined) | > 100 µM (inactive) | > 100 µM (inactive) | > 100 µM (inactive) | > 100 µM (inactive) | > 100 µM (inactive) | > 100 µM (inactive) | > 100 µM | > 100 µM (inactive) | > 100 µM (inactive) | > 100 µM (inactive) | > 100 µM (inactive) | > 100 µM (inactive) | > 100 µM (inactive) | > 100 µM (inactive) | > 100 µM (inactive) | > 100 µM (inactive) | > 100 µM (inactive) | > 100 µM (inactive) | > 100 µM (inactive) | 
Clc1ccc(COC(Cn2ccnc2)c2ccc(Cl)cc2Cl)c(Cl)c1 (centres undefined) [MICONAZOLE] | 9.64 µM (inactive) | 15 µM (inactive) |  | 14.3 µM (inactive) | 17.1 µM (inactive) | 5.12 µM (inactive) | 10.8 µM | 11.4 µM (inactive) | 11.8 µM (inactive) | 12.7 µM (inactive) | 3.23 µM (inactive) | 14.9 µM (inactive) |  | 11 µM (inactive) | 17.5 µM (inactive) | 10 µM (inactive) | 13.9 µM (inactive) | 13.6 µM (inactive) | 12.1 µM (inactive) | 17.1 µM (inactive)
N[C@@H](Cc1ccccc1)C(=O)N1CCC[C@@H]1P(=O)(Oc1ccccc1)Oc1ccccc1 | > 100 µM (inactive) | > 100 µM (inactive) | > 100 µM (inactive) | > 100 µM (inactive) | 39.3 µM (inactive) | > 100 µM (inactive) | > 100 µM | > 100 µM (inactive) | > 100 µM (inactive) | > 100 µM (inactive) | > 100 µM (inactive) | > 100 µM (inactive) | > 100 µM (inactive) | > 100 µM (inactive) | > 100 µM (inactive) |  | > 100 µM (inactive) | > 100 µM (inactive) | > 100 µM (inactive) | > 100 µM (inactive)
N[C@H]1CCCC[C@@H]1N1C(=O)c2ccccc2C1(O)c1ccc(Cl)cc1 (some centres undefined) | 12.2 µM (inactive) | 13.7 µM (inactive) | 3.41 µM (inactive) | 15.3 µM (inactive) | 1.86 µM (inactive) | 9.79 µM (inactive) | 13.4 µM | 10.3 µM (inactive) | 2.11 µM (inactive) | 9.38 µM (inactive) | 6.5 µM (inactive) | 14 µM (inactive) | 15.9 µM (inactive) | 14.9 µM (inactive) | 11.2 µM (inactive) | 13.8 µM (inactive) | 15.4 µM (inactive) | 13.7 µM (inactive) | 6.3 µM (inactive) | 3.78 µM (inactive)
COc1ccc(-c2cc(-c3ccc(Nc4ccnc5cc(C(F)(F)F)ccc45)cc3)[nH]c(=O)c2C#N)cc1 | > 100 µM (inactive) | > 42.1 µM (inactive) | > 39.4 µM (inactive) | 98.9 µM (inactive) | > 100 µM (inactive) | 11.4 µM (inactive) | > 100 µM | 49.7 µM (inactive) | > 100 µM (inactive) | 16.6 µM (inactive) | 39.6 µM (inactive) | > 100 µM (inactive) | > 29.3 µM (inactive) | > 38.4 µM (inactive) | > 100 µM (inactive) | > 100 µM (inactive) | > 77.4 µM (inactive) | > 100 µM (inactive) | > 100 µM (inactive) | > 72.1 µM (inactive)
COC(=O)c1sc2c(=O)c(C(=O)OC)c(C(=O)OC)sc2c(=O)c1C(=O)OC | > 100 µM (inactive) | > 100 µM (inactive) | > 100 µM (inactive) | > 100 µM (inactive) | > 100 µM (inactive) | > 100 µM (inactive) | > 100 µM | > 100 µM (inactive) | > 100 µM (inactive) | 73.3 µM (inactive) | > 100 µM (inactive) | 49 µM (inactive) | > 100 µM (inactive) | > 100 µM (inactive) | > 100 µM (inactive) | 21.5 µM (inactive) | > 100 µM (inactive) | > 100 µM (inactive) | > 100 µM (inactive) | > 100 µM (inactive)
CCN(CC)CC1CCCCN1CC(=O)N1c2ccccc2C(=O)Nc2cccnc21 (centres undefined) [OTENZEPAD] | 17 µM (inactive) | 56 µM (inactive) | 23.2 µM (inactive) | > 100 µM (inactive) | > 100 µM (inactive) | 12.2 µM (inactive) | 38.6 µM | > 100 µM (inactive) | 66.7 µM (inactive) | 18.3 µM (inactive) | 63 µM (inactive) | > 100 µM (inactive) | 41 µM (inactive) | 52 µM (inactive) | 59.3 µM (inactive) | > 100 µM (inactive) | 45.4 µM (inactive) | 50.9 µM (inactive) | 36.7 µM (inactive) | > 100 µM (inactive)
CCOP(=O)(OCC)C(Nc1ccc(Br)cc1)c1cccc([N+](=O)[O-])c1 (centres undefined) | 15.8 µM (inactive) | 18.3 µM (inactive) | 13.2 µM (inactive) | 2.99 µM (inactive) | 17.5 µM (inactive) | 12.7 µM (inactive) | 14.5 µM | 20.7 µM (inactive) | 12.6 µM (inactive) | 10.4 µM (inactive) | 16.1 µM (inactive) | 18.2 µM (inactive) | 16.7 µM (inactive) | 20.7 µM (inactive) | 14.1 µM (inactive) | 13.6 µM (inactive) | 24.6 µM (inactive) | 18.8 µM (inactive) | 16.9 µM (inactive) | 15.2 µM (inactive)
O=C(NCc1cccnc1)NCc1cccnc1 | > 100 µM (inactive) | > 100 µM (inactive) | > 100 µM (inactive) | > 100 µM (inactive) | > 100 µM (inactive) | > 100 µM (inactive) | > 100 µM | > 100 µM (inactive) | > 100 µM (inactive) | > 100 µM (inactive) | > 100 µM (inactive) | > 100 µM (inactive) | 58.9 µM (inactive) | > 100 µM (inactive) | > 100 µM (inactive) | > 100 µM (inactive) | > 100 µM (inactive) | > 100 µM (inactive) | > 100 µM (inactive) | > 100 µM (inactive)
Nc1nc(O)c(N)c(NCCOCP(=O)(O)O)n1 | > 100 µM (inactive) | > 100 µM (inactive) | > 100 µM (inactive) | > 100 µM (inactive) | > 100 µM (inactive) | > 100 µM (inactive) | > 100 µM | > 100 µM (inactive) |  | > 100 µM (inactive) | > 100 µM (inactive) | > 100 µM (inactive) | > 100 µM (inactive) | > 57.8 µM (inactive) | > 100 µM (inactive) |  | > 100 µM (inactive) | > 100 µM (inactive) | > 100 µM (inactive) | > 100 µM (inactive)
COc1ccc(-n2nnc3c(C#N)c(C)c(-c4ccccc4)n3c2=O)cc1 | 2.9 µM (inactive) | 7.38 µM (inactive) | 2.93 µM (inactive) | 2.84 µM (inactive) | 3.56 µM (inactive) | 0.501 µM (active) | 4.72 µM | > 92.7 µM (inactive) | 2.71 µM (inactive) | 3.31 µM (inactive) | 0.543 µM (active) | 3.95 µM (inactive) | 2.3 µM (inactive) | 3.34 µM (inactive) | 3.65 µM (inactive) |  | 4.92 µM (inactive) | 4.34 µM (inactive) |  | 2.4 µM (inactive)
Cc1ccc(S(=O)(=O)NNC(=O)Nc2ccc([N+](=O)[O-])cc2)cc1 | 35.6 µM (inactive) | > 100 µM (inactive) | 42.3 µM (inactive) | > 100 µM (inactive) | 64.9 µM (inactive) | 26.9 µM (inactive) | 24.5 µM | 43.8 µM (inactive) | 23.8 µM (inactive) | 52.4 µM (inactive) | 55 µM (inactive) | 76 µM (inactive) | > 100 µM (inactive) | 36.7 µM (inactive) | 23.9 µM (inactive) | 26.5 µM (inactive) | 17.4 µM (inactive) | 97.1 µM (inactive) | 33 µM (inactive) | > 100 µM (inactive)
Cc1ccc(C(=O)C2=CN=C3C(=O)N(c4ccccc4)N(C)C3(C)C2=N)cc1 (centres undefined) | > 100 µM (inactive) | > 100 µM (inactive) | > 100 µM (inactive) | > 100 µM (inactive) | > 100 µM (inactive) | > 100 µM (inactive) | > 100 µM | > 100 µM (inactive) | > 100 µM (inactive) | > 100 µM (inactive) | > 100 µM (inactive) | > 100 µM (inactive) | > 100 µM (inactive) | > 100 µM (inactive) | > 100 µM (inactive) | > 100 µM (inactive) | > 100 µM (inactive) | > 100 µM (inactive) | > 100 µM (inactive) | 
O=[N+]([O-])c1ccc2nc(=S)[nH]n2c1 | > 100 µM (inactive) | > 100 µM (inactive) | > 100 µM (inactive) | > 100 µM (inactive) | > 100 µM (inactive) | > 100 µM (inactive) | > 100 µM | > 100 µM (inactive) | > 100 µM (inactive) | > 100 µM (inactive) | > 100 µM (inactive) | > 100 µM (inactive) | > 100 µM (inactive) | > 100 µM (inactive) | > 100 µM (inactive) | > 100 µM (inactive) | > 100 µM (inactive) | > 100 µM (inactive) | > 100 µM (inactive) | 
CCOC(=O)/C(=C\NC[C@@H](C)O)c1nc2ccccc2[nH]1 | 62.4 µM (inactive) | 32.4 µM (inactive) | 69.5 µM (inactive) | > 100 µM (inactive) | 37.4 µM (inactive) | > 100 µM (inactive) | 73.3 µM | 72.9 µM (inactive) | 57.4 µM (inactive) | 96.8 µM (inactive) | > 100 µM (inactive) | > 100 µM (inactive) |  | 54.5 µM (inactive) | 33.3 µM (inactive) | 40.3 µM (inactive) | 64 µM (inactive) | 93.1 µM (inactive) | > 100 µM (inactive) | 57.3 µM (inactive)
